Patent publication US20180362543A1, “HIV REPLICATION INHIBITOR” (Shionogi & Co., Ltd., priority 2013, published 2018)

Tested on: HIV (HTLV-III B strain)
Assay: HIV replication inhibition assay (MTT, MT-4 cells)
Type: cell-based
Description: HIV (HTLV-III B strain) persistent infected human T cell strain Molt-4 clone 8 was cultured in 10% Fetal Bovine Serum-containing RPMI-1640 medium and the supernatant was filtrated, then the virus titer was measured and the solution was stored at −80° C. Each anti-human immunodeficiency virus active substance was diluted with the above cultured medium to the designated concentration, which was dispensed into 96 well micro plate by 50 μL. Next, a MT-4 cell suspended liquid was dispensed by 100 μL (2.5×10^4 cells), then the above HIV-containing supernatant diluted with the above cultured medium was added thereto by 50 μL (60 pfu (plaque forming unit)).
The obtained mixture was cultured at 37° C. in CO2 incubator for four days, then 3-(4,5-dimehylthiazole-2-yl)-2,5-diphenyltetrazolynium bromide (MTT) 5 mg/mL in PBS was added to each well by 30 μL, followed by 1 hr-cultivation. In this step, as formazan was precipitated by reduction of MTT in living cells, the cell supernatant was removed from all well by 150 μL, then a 150 μL of solution (10% Triton X-100 and […]) was added thereto, followed by shaking with a plate mixer, to elute formazan. The formazan was measured with a microreader at OD: 560 nm and 690 nm (wavelength) and the result was compared with the reference. EC50 means the compound concentration at which cell cytotoxicity by virus is inhibited 50%.

[1] = 4 days culture, concentration at which cell cytotoxicity by virus is inhibited 50%
[2] = Human immunodeficiency virus 1, MT4, 96 h, 4 days culture, concentration at which cell cytotoxicity by virus is inhibited 50%
[3] = Human immunodeficiency virus 1, MT4, 96 h, Table A-2, four days
[4] = Human immunodeficiency virus 1, MT4, 96 h, Table A-3, four days

Cc1c(C(OC(C)(C)C)C(=O)O)c(-c2ccc3c(c2)CCCO3)c(C)c2c1[nH]c(=O)n2Cc1ccccc1 (stereo not drawn) [Compound 3]
EC50 [1]: 64 nM

Cc1c(-c2c([C@H](OC(C)(C)C)C(=O)O)c(C)c3nc(O)c4ccccc4c3c2C)ccc2c1CCCO2 [Compound 8]
EC50 [1]: 62 nM

Cc1c([C@H](OC(C)(C)C)C(=O)O)c(-c2ccc3c(c2)CCCO3)c(C)c2c1ncc1ccsc12 [Compound 17]
EC50 [2]: 59 nM

Cc1ccc(-c2c(C)c3c(c(C)c2[C@H](OC(C)(C)C)C(=O)O)N(S(C)(=O)=O)Cc2ccccc2-3)cc1 [Compound 20]
EC50 [2]: 13 nM

Cc1ccc(-c2c(C)c3c(c(C)c2[C@H](OC(C)(C)C)C(=O)O)NC(=O)CCc2ccccc2-3)cc1 [Compound 42]
EC50 [2]: 10 nM

Cc1ccc(-c2c(C)c3c(c(C)c2[C@H](OC(C)(C)C)C(=O)O)NC(=O)c2ccc(C)nc2O3)cc1 [Compound 48]
EC50 [2]: 29 nM

Cc1ccc(-c2c(C)c3c(c(C)c2[C@H](OC(C)(C)C)C(=O)O)NC(=O)N(C2CCCCC2)CC3)cc1 [Compound 71]
EC50 [2]: 16 nM

Cc1c2c3c(c(C(OC(C)(C)C)C(=O)O)c1-c1ccc4c(c1)CCCO4)CCCN3S(=O)(=O)N(Cc1ccccc1)C2 (stereo not drawn) [Compound 79]
EC50 [2]: 15 nM

Cc1ccc(-c2c(C)c3c(c(C)c2[C@H](OC(C)(C)C)C(=O)O)NS(=O)(=O)/C=C/CCCCO3)cc1 [Compound 88]
EC50 [3]: 21 nM

Cc1ccc(-c2c(C)c3c(c(C)c2[C@H](OC(C)(C)C)C(=O)O)NS(=O)(=O)Cc2cc(F)ccc2-3)cc1 [Compound 91]
EC50 [3]: 4.2 nM

Cc1ccc(-c2c(C)c3c(c(C)c2[C@H](OC(C)(C)C)C(=O)O)NS(=O)(=O)Cc2ccc(F)cc2-3)cc1 [Compound 95]
EC50 [3]: 9.8 nM

Cc1ccc(-c2c([C@H](OC(C)(C)C)C(=O)O)c(C)c3nc(O)c4cc(C)ccc4c3c2C)cc1 [Compound 96]
EC50 [3]: 32 nM

Cc1ccc(-c2c([C@H](OC(C)(C)C)C(=O)O)c(C)c3nc(O)c4cc(C(F)(F)F)ccc4c3c2C)cc1 [Compound 98]
EC50 [3]: 22 nM

Cc1ccc(-c2c([C@H](OC(C)(C)C)C(=O)O)c(C)c3ncc4cc5ccccc5nc4c3c2C)cc1 [Compound 99]
EC50 [3]: 97 nM

Cc1ccc(-c2c([C@H](OC(C)(C)C)C(=O)O)c(C)c3nc(O)c4cc(F)cnc4c3c2C)cc1 [Compound 100]
EC50 [3]: 10 nM

Cc1ccc(-c2c([C@H](OC(C)(C)C)C(=O)O)c(C)c3nc(O)c4cc5ccsc5nc4c3c2C)cc1 [Compound 101]
EC50 [3]: 17 nM

Cc1ccc(-c2c(C)c3c(c(C)c2[C@H](OC(C)(C)C)C(=O)O)N(S(C)(=O)=O)Cc2cc4c(cc2-3)OCCO4)cc1 [Compound 104]
EC50 (Table A-2, four days): 2.1 nM

Cc1ccc(-c2c(C)c3c(c(C)c2[C@H](OC(C)(C)C)C(=O)O)N(S(C)(=O)=O)Cc2cc4c(cc2-3)OCCO4)cc1 [Compound 105]
EC50 (Table A-2, four days): 38 nM

Cc1ccc(-c2c(C)c3c(c(C)c2[C@H](OC(C)(C)C)C(=O)O)N(S(C)(=O)=O)Cc2cc(F)c(F)cc2-3)cc1 [Compound 108]
EC50 [3]: 12 nM

Cc1ccc(-c2c(C)c3c(c(C)c2[C@H](OC(C)(C)C)C(=O)O)N(S(C)(=O)=O)Cc2cccc(F)c2-3)cc1 [Compound 109]
EC50 [3]: 9.1 nM

Cc1ccc(-c2c(C)c3c(c(C)c2[C@H](OC(C)(C)C)C(=O)O)N(S(C)(=O)=O)Cc2ccc(C)cc2-3)cc1 [Compound 110]
EC50 [3]: 17 nM

Cc1ccc(-c2c(C)c3c(c(C)c2[C@H](OC(C)(C)C)C(=O)O)NC(=O)C2(CCC2)N3)cc1 [Compound 111]
EC50 [3]: 7.8 nM

Cc1ccc(-c2c(C)c3c(c(C)c2[C@H](OC(C)(C)C)C(=O)O)NC(=O)C2(CCC(C)(C)CC2)N3)cc1 [Compound 112]
EC50 [3]: 8.5 nM

Cc1ccc(-c2c(C)c3c(c(C)c2[C@H](OC(C)(C)C)C(=O)O)NC(=O)C2(C[C@@H]4CC[C@H]2C4)N3)cc1 (stereo partly drawn) [Compound 113]
EC50 [3]: 8.6 nM

Cc1ccc(-c2c(C)c3c(c(C)c2[C@H](OC(C)(C)C)C(=O)O)N(S(C)(=O)=O)Cc2cc(C)ccc2-3)cc1 [Compound 115]
EC50 [3]: 6 nM

Cc1ccc(-c2c(C)c3c(c(C)c2[C@H](OC(C)(C)C)C(=O)O)N(S(C)(=O)=O)Cc2c-3ccc3cccnc23)cc1 [Compound 116]
EC50 [3]: 2.9 nM

Cc1ccc(-c2c(C)c3c(c(C)c2[C@H](OC(C)(C)C)C(=O)O)NS(=O)(=O)Cc2cc(C)ccc2-3)cc1 [Compound 117]
EC50 (Table A-2, four days): 19 nM

Cc1ccc(-c2c(C)c3c(c(C)c2[C@H](OC(C)(C)C)C(=O)O)NS(=O)(=O)Cc2cc(C)ccc2-3)cc1 [Compound 118]
EC50 (Table A-2, four days): 4.4 nM

Cc1ccc(-c2c(C)c3c(c(C)c2[C@H](OC(C)(C)C)C(=O)O)NS(=O)(=O)Cc2ccc(C)cc2-3)cc1 [Compound 119]
EC50 (Table A-2, four days): 43 nM

Cc1ccc(-c2c(C)c3c(c(C)c2[C@H](OC(C)(C)C)C(=O)O)NS(=O)(=O)Cc2ccc(C)cc2-3)cc1 [Compound 120]
EC50 (Table A-2, four days): 5.1 nM

COc1ccc2c(c1)CN(S(C)(=O)=O)c1c(C)c([C@H](OC(C)(C)C)C(=O)O)c(-c3ccc(C)cc3)c(C)c1-2 [Compound 122]
EC50 [3]: 3.8 nM

Cc1ccc(-c2c(C)c3c(c(C)c2[C@H](OC(C)(C)C)C(=O)O)NS(=O)(=O)Cc2c(F)cccc2-3)cc1 [Compound 123]
EC50 (Table A-2, four days): 89 nM

Cc1ccc(-c2c(C)c3c(c(C)c2[C@H](OC(C)(C)C)C(=O)O)NS(=O)(=O)Cc2c(F)cccc2-3)cc1 [Compound 124]
EC50 (Table A-2, four days): 8.2 nM

Cc1ccc(-c2c(C)c3c(c(C)c2[C@H](OC(C)(C)C)C(=O)O)NS(=O)(=O)Cc2cccc(C)c2-3)cc1 [Compound 125]
EC50 [3]: 39 nM

Cc1ccc(-c2c(C)c3c(c(C)c2[C@H](OC(C)(C)C)C(=O)O)NS(=O)(=O)N(C2CCCCC2)CC3)cc1 [Compound 127]
EC50 [3]: 11 nM

Cc1ccc(-c2c(C)c3c(c(C)c2[C@H](OC(C)(C)C)C(=O)O)NS(=O)(=O)N(C2CCCCCC2)CC3)cc1 [Compound 128]
EC50 [3]: 10 nM

Cc1ccc(-c2c(C)c3c(c(C)c2[C@H](OC(C)(C)C)C(=O)O)NS(=O)(=O)N(C2CCCC2)CC3)cc1 [Compound 129]
EC50 [3]: 7.7 nM

Cc1ccc(-c2c(C)c3c(c(C)c2[C@H](OC(C)(C)C)C(=O)O)NS(=O)(=O)N(CC2CCCCC2)CC3)cc1 [Compound 130]
EC50 [3]: 12 nM

Cc1ccc(-c2c(C)c3c(c(C)c2[C@H](OC(C)(C)C)C(=O)O)NS(=O)(=O)N(C2CCOCC2)CC3)cc1 [Compound 131]
EC50 [3]: 87 nM

COCCN1CCc2c(C)c(-c3ccc(C)cc3)c([C@H](OC(C)(C)C)C(=O)O)c(C)c2NS1(=O)=O [Compound 132]
EC50 [3]: 22 nM

Cc1ccc(-c2c(C)c3c(c(C)c2[C@H](OC(C)(C)C)C(=O)O)NS(=O)(=O)N(Cc2ccc(F)cc2)CC3)cc1 [Compound 133]
EC50 [3]: 4.8 nM

Cc1ccc(-c2c(C)c3c(c(C)c2[C@H](OC(C)(C)C)C(=O)O)NS(=O)(=O)N(C(c2ccccc2)c2ccccc2)CC3)cc1 [Compound 134]
EC50 [3]: 62 nM

Cc1ccc(-c2c(C)c3c(c(C)c2[C@H](OC(C)(C)C)C(=O)O)NC(=O)C2(CCCCCC2)N3)cc1 [Compound 140]
EC50 [4]: 3.1 nM

Cc1ccc(-c2c(C)c3c(c(C)c2[C@H](OC(C)(C)C)C(=O)O)N(S(C)(=O)=O)Cc2c-3ccc(C)c2F)cc1 [Compound 141]
EC50 [4]: 3.5 nM

Cc1ccc(-c2c(C)c3c(c(C)c2[C@H](OC(C)(C)C)C(=O)O)N(S(C)(=O)=O)Cc2c(F)ccc(F)c2-3)cc1 [Compound 142]
EC50 [4]: 4.4 nM

Cc1ccc(-c2c(C)c3c(c(C)c2[C@H](OC(C)(C)C)C(=O)O)N(S(C)(=O)=O)Cc2cccnc2-3)cc1 [Compound 145]
EC50 [4]: 39 nM

Cc1ccc(-c2c(C)c3c(c(C)c2[C@H](OC(C)(C)C)C(=O)O)NC(=O)N(C2CCCCCC2)CC3)cc1 [Compound 148]
EC50 [4]: 8.8 nM

Cc1ccc(-c2c(C)c3c(c(C)c2[C@H](OC(C)(C)C)C(=O)O)NC(=O)N(C2CCCC2)CC3)cc1 [Compound 149]
EC50 [4]: 23 nM

Cc1ccc(-c2c(C)c3c(c(C)c2[C@H](OC(C)(C)C)C(=O)O)NC(=O)N(CC2CCCCC2)CC3)cc1 [Compound 150]
EC50 [4]: 22 nM

Cc1ccc(-c2c(C)c3c(c(C)c2[C@H](OC(C)(C)C)C(=O)O)NC(=O)N(C(c2ccccc2)c2ccccc2)CC3)cc1 [Compound 152]
EC50 [4]: 16 nM

Cc1ccc(-c2c([C@H](OC(C)(C)C)C(=O)O)c(C)c3nc(O)c4c(c3c2C)CCN(S(=O)(=O)c2ccc(F)cc2)C4)cc1 [Compound 153]
EC50 [4]: 47 nM

Cc1ccc(-c2c(C)c3c(c(C)c2[C@H](OC(C)(C)C)C(=O)O)N(S(=O)(=O)C2CC2)Cc2ccccc2-3)cc1 [Compound 155]
EC50 [4]: 39 nM

Cc1ccc(-c2c(C)c3c(c(C)c2[C@H](OC(C)(C)C)C(=O)O)NS(=O)(=O)Cc2cccc(F)c2-3)cc1 [Compound 156]
EC50 [4]: 23 nM

Cc1ccc(-c2c(C)c3c(c(C)c2[C@H](OC(C)(C)C)C(=O)O)NC(=O)C2(CCC(F)(F)CC2)N3)cc1 [Compound 157]
EC50 [4]: 4.3 nM

Cc1ccc(-c2c(C)c3c(c(C)c2[C@H](OC(C)(C)C)C(=O)O)N(S(C)(=O)=O)Cc2cc(C(F)(F)F)ccc2-3)cc1 [Compound 159]
EC50 [4]: 5.3 nM

Cc1ccc(-c2c(C)c3c(c(C)c2[C@H](OC(C)(C)C)C(=O)O)N(S(C)(=O)=O)Cc2ccc(F)cc2-3)cc1 [Compound 161]
EC50 [4]: 21 nM

COc1cc(C)c2c(c1)CN(S(C)(=O)=O)c1c(C)c([C@H](OC(C)(C)C)C(=O)O)c(-c3ccc(C)cc3)c(C)c1-2 [Compound 162]
EC50 [4]: 13 nM
